Assay results taken from ChEMBL document CHEMBL3045824, “Unique neonicotinoid binding conformations conferring selective receptor interactions” (J Agric Food Chem, 2011).

Experiments:
[1] = target: Neuronal acetylcholine receptor subunit alpha-4 (Gallus gallus, UniProt P09482+P09484); assay: Binding affinity to recombinant Gallus gallus (chicken) alpha4beta2 nicotinic acetylcholine receptor assessed as [3H]NIC binding by radioligand binding assay
[2] = target: T1, Acetylcholine receptor subunit beta-like 2 (Drosophila melanogaster, UniProt P25162); assay: Binding affinity to Drosophila brain nicotinic acetylcholine receptor assessed as [3H]IMI binding by radioligand binding assay
T1 sequence (P25162 whole entry): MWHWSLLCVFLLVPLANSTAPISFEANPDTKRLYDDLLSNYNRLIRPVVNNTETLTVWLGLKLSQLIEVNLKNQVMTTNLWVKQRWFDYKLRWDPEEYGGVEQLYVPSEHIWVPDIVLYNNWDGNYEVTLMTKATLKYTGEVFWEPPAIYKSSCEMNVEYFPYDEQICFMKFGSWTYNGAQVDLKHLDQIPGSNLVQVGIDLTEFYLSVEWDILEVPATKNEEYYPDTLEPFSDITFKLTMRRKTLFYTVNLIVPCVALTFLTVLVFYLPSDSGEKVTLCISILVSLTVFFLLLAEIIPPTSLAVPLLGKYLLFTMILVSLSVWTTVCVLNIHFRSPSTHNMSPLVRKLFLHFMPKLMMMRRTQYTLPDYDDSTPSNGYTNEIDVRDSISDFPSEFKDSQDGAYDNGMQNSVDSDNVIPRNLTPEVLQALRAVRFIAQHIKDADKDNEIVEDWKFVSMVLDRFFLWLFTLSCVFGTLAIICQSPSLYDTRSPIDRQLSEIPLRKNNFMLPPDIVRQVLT

[3] = target: Acetylcholine-binding protein (Lymnaea stagnalis, UniProt P58154); assay: Binding affinity to freshwater snail Lymnaea stagnalis AChBP assessed as [3H]EPI binding by radioligand binding assay
Chain of Acetylcholine-binding protein (P58154 whole entry): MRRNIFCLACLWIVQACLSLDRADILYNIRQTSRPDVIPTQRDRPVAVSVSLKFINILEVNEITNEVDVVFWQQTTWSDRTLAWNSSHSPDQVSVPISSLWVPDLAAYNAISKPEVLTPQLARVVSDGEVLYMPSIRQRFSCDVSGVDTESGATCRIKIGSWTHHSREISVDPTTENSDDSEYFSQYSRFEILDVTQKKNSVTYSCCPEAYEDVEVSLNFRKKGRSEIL

[4] = target: Soluble acetylcholine receptor (Aplysia californica, UniProt Q8WSF8, Y55W); assay: Binding affinity to salt water mollusc Aplysia californica AChBP Y55W mutant assessed as [3H]acetamiprid binding by radioligand binding assay

Chain of Neuronal acetylcholine receptor subunit alpha-4 (P09482 whole entry, one chain of several): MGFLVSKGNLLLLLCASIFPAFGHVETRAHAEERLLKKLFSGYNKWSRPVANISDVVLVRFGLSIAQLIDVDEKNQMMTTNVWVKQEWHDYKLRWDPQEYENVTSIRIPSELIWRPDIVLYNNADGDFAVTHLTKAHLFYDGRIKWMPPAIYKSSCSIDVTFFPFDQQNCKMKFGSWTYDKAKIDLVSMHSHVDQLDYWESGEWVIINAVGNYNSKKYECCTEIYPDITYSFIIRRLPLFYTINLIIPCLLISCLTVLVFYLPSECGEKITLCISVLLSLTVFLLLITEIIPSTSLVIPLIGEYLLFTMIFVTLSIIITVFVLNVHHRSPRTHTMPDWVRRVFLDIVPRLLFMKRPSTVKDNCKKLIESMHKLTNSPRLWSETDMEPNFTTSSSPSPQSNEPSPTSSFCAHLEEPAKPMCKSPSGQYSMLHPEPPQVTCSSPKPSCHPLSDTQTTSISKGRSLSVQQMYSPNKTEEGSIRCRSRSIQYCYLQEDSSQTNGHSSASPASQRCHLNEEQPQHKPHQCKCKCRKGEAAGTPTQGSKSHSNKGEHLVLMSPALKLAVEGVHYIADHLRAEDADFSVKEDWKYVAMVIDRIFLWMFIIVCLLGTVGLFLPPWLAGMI

SMILES | Ki [1] [nM] | Ki [2] [nM] | Ki [3] [nM] | Ki [4] [nM]
N=C1NCCN1Cc1ccc(Cl)nc1 [DESNITROIMIDACLOPRID] | 2.2 | 1000 | 18 | 15
O=[N+]([O-])/C=C1\NCCN1Cc1ccc(Cl)nc1 | 60 | 0.12 | – | 1.7
N=C1SCCN1Cc1ccc(Cl)nc1 [DESCYANOTHIACLOPRID] | 1.2 | 130 | 16 | 0.6
N#C/N=C1\SCCN1Cc1ccc(Cl)nc1 [THIACLOPRID] | 240 | 1.2 | – | 3.9
CN1CCC[C@H]1c1cccnc1 [NICOTINE] | 1.9 | 2700 | – | 30
Clc1ccc(C2CC3CCC2N3)cn1 (racemic) [EPIBATIDINE] | – | 290 | 0.3 | 1
O=[N+]([O-])NC1=NCCN1Cc1ccc(Cl)nc1 [IMIDACLOPRID] | 970 | 3 | – | 19
C/C(=N\C#N)N(C)Cc1ccc(Cl)nc1 | 680 | 7.2 | 1200 | 32
